From US8486447B2, “Pharmaceutical formulation” (Novartis AG, priority 2003, dated 2013)

Experiment: HPLC analysis of thermal degradation of drug substance and melt-processed solid dispersions
Type: physicochemical
Details: for HPLC analysis (thermal degradation): Table 1

CN(Cc1ccccc1)C(=O)[C@H](Cc1ccc2ccccc2c1)N(C)C(=O)[C@@H]1CCCN1c1nc(=O)c2ccccc2[nH]1 [TKA731, (S)-1-(4-Oxo-1,4-dihydro-quinazolin-2-yl)-pyrrolidine-2-carboxylic acid[(S)-1-(benzyl-methyl-carbamoyl)-2-naphthalen-2-yl-ethyl]-methyl-amide]
No degradation: HPLC analysis (thermal degradation) (drug load 100%, PVPK-30 0%, amorphous TKA731) | HPLC analysis (thermal degradation) (solid dispersion, drug load 20%, PVPK-30 80%) | HPLC analysis (thermal degradation) (solid dispersion, drug load 30%, PVPK-30 70%) | HPLC analysis (thermal degradation) (solid dispersion, drug load 40%, PVPK-30 60%)
20%: HPLC analysis (degradation) (Table 2, starting from crystalline drug, melting point 175 °C)
No: HPLC analysis (degradation) (Table 2, starting from amorphous drug, Tg 94.5 °C) | HPLC analysis (degradation) (Table 3, amorphous drug load 20%, PVPK-30 70%, sorbitol 10%, processing temperature 170 °C) | HPLC analysis (degradation) (Table 3, amorphous drug load 30%, PVPK-30 65%, sorbitol 5%, processing temperature 170 °C) | HPLC analysis (degradation) (Table 3, amorphous drug load 40%, PVPK-30 60%, sorbitol 0%, processing temperature 170 °C)
